Results reported in patent publication US12644889B2, “Viral condensates and methods of use thereof” (Whitehead Institute for Biomedical Research, priority 2020, dated 2026).

Target: T1, SARS-CoV-2 nucleocapsid condensates (Severe acute respiratory syndrome coronavirus 2, UniProt P0DTC9)
T1 construct: Streptavidin tag (so in the source); made in house; host or cells: HEK cells
Assay: drug partitioning assay in nucleocapsid condensates (confocal fluorescence microscopy)
Conditions: in vitro condensates not containing DNA; 10 uM nucleocapsid, 10% PEG, 1-50 uM drug

O=C1c2c(O)ccc(O)c2C(=O)c2c(NCCNCCO)ccc(NCCNCCO)c21 [mitoxantrone]
partitioning of drug into nucleocapsid condensates: partitions into SARS-CoV-2 nucleocapsid condensates not containing DNA
